Source: ChEMBL document CHEMBL1201862, “PubChem BioAssay data set” (2004)
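A five-concentration, 48-hour dose response in 96-well plates underlies each endpoint, interpolated linearly between surrounding concentrations. At the GI50, growth is halved.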 The source made the active and inactive calls. Cut-off read from the data, not from the text of the source: active = GI50 up to about 1.1 µM and inactive = higher. Square brackets hold non-standard residues; d marks the D form. Peptide text beside a SMILES is read from it. * marks the point of attachment. Phe(4-NO2) = N[CH](Cc1ccc([N+](=O)[O-])cc1)C(=O)O; Boc = CC(C)(C)OC(=O)*

Legend:
Assay in all cases: DTP human tumour cell line panel, 48 h
[1] = test system: CCRF-CEM
[2] = test system: DU-145
[3] = test system: EKVX
[4] = test system: HCT-116
[5] = test system: HL-60
[6] = test system: HOP-92
[7] = test system: HT-29
[8] = test system: MDA-N
[9] = test system: NCI-H23
[10] = test system: OVCAR-4
[11] = test system: OVCAR-5
[12] = test system: SF-295
[13] = test system: SF-539
[14] = test system: SK-MEL-28
[15] = test system: SK-MEL-2
[16] = test system: SNB-75
[17] = test system: SR
[18] = test system: UACC-62
[19] = test system: CAKI-1
[20] = test system: OVCAR-8

Measured: GI50

COc1ccc(-c2cc(=O)c3c(O)cc(C)cc3o2)cc1OC
inactive: [1] > 100 µM | [2] > 100 µM | [3] > 100 µM | [4] > 100 µM | [5] > 100 µM | [6] 22.8 µM | [7] > 100 µM | [8] > 100 µM | [9] > 100 µM | [10] > 100 µM | [11] > 100 µM | [12] > 100 µM | [13] > 100 µM | [14] > 100 µM | [15] > 100 µM | [16] 67.1 µM | [17] > 100 µM | [18] > 100 µM

C=C1c2cc3c(cc2CC12Cc1cc4c(cc1C2=O)CCC4)CCC3 (stereo unspecified)
inactive: [19] > 100 µM | [1] > 100 µM | [2] > 100 µM | [3] > 100 µM | [4] > 100 µM | [5] > 100 µM | [6] > 100 µM | [7] > 100 µM | [8] > 100 µM | [9] > 100 µM | [10] > 100 µM | [11] > 100 µM | [20] > 100 µM | [12] > 100 µM | [13] > 100 µM | [14] > 100 µM | [15] > 100 µM | [16] > 100 µM | [17] 36.1 µM

CCOC(=O)C(=CNC(=S)N/N=C1\C(=O)Nc2ccccc21)C(=O)OCC
inactive: [19] 21.1 µM | [1] 41.9 µM | [2] > 100 µM | [4] > 100 µM | [5] 31 µM | [6] 82 µM | [7] 84.3 µM | [8] > 100 µM | [9] > 100 µM | [10] > 100 µM | [11] > 100 µM | [20] 89.9 µM | [12] > 100 µM | [13] > 100 µM | [14] > 100 µM | [15] > 100 µM | [16] 21.5 µM | [17] 69.3 µM | [18] > 100 µM

Cc1cc(Cl)ccc1OCC(=O)Oc1c(Cl)c(Cl)c(Cl)c(Cl)c1Cl
inactive: [19] 33 µM | [2] 22.4 µM | [3] 18.6 µM | [4] 20.8 µM | [5] > 100 µM | [6] 17.3 µM | [7] 26.7 µM | [8] 26.2 µM | [9] 26.4 µM | [10] 27.3 µM | [11] 24.4 µM | [20] 26 µM | [12] 24.1 µM | [13] 38.7 µM | [14] 27.7 µM | [15] 24.2 µM | [16] 26.6 µM | [17] 17.7 µM | [18] 19 µM

CNC(=O)CCC(NC(=O)OC(C)(C)C)C(=O)NC(Cc1ccc([N+](=O)[O-])cc1)C(=O)NCC(=O)NC (stereo unspecified) (Boc-Glu(NHMe)-[Phe(4-NO2)]-Gly-NHMe; configuration not given here)
inactive: [19] > 100 µM | [2] > 100 µM | [3] > 100 µM | [4] > 100 µM | [5] > 100 µM | [6] > 100 µM | [7] > 100 µM | [8] > 100 µM | [9] > 100 µM | [10] > 100 µM | [11] > 100 µM | [20] > 100 µM | [12] > 100 µM | [13] > 100 µM | [14] > 100 µM | [16] > 100 µM | [17] > 100 µM | [18] > 100 µM

C/C(=C/CC[C@](C)(OC1OC(CO)C(O)C(O)C1OC1OC(C)C(O)C(O)C1O)[C@H]1CC[C@]2(C)[C@@H]1CC[C@@H]1[C@@]3(C)CC[C@H](O)C(C)(C)[C@@H]3C[C@H](O)[C@]12C)CO (stereo partly specified)
inactive: [19] > 100 µM | [1] > 100 µM | [2] > 100 µM | [3] > 100 µM | [4] > 100 µM | [5] > 100 µM | [6] > 100 µM | [7] > 100 µM | [8] > 100 µM | [9] > 100 µM | [10] > 100 µM | [11] > 100 µM | [20] > 100 µM | [12] > 100 µM | [13] > 100 µM | [14] > 100 µM | [16] > 100 µM | [17] > 100 µM | [18] > 100 µM

c1ccc(CSC2(SCc3ccccc3)CCCCC2)cc1
inactive: [19] > 10 µM | [1] > 10 µM | [2] > 10 µM | [3] > 10 µM | [4] > 10 µM | [5] > 10 µM | [6] > 10 µM | [7] > 10 µM | [8] > 10 µM | [9] > 10 µM | [10] > 10 µM | [20] > 10 µM | [12] > 10 µM | [13] > 10 µM | [14] > 10 µM | [15] > 10 µM | [16] > 10 µM | [17] > 10 µM | [18] > 10 µM

COc1ccc([N+](=O)[O-])c2c(NCCCN(C)C)c(C)c(C)nc12
inactive: [19] > 100 µM | [1] > 100 µM | [2] > 100 µM | [4] 36.2 µM | [5] 42.9 µM | [6] 23.9 µM | [7] 42.6 µM | [8] > 100 µM | [9] 44.8 µM | [10] 27.8 µM | [11] > 100 µM | [20] > 100 µM | [12] 90.8 µM | [13] > 100 µM | [14] > 100 µM | [15] > 100 µM | [16] 36.1 µM | [17] 14.3 µM | [18] 81.3 µM

Cc1cc(C)n(-c2nc(C)c(CCO)c(=O)[nH]2)n1
inactive: [19] > 10 µM | [1] > 100 µM | [2] > 100 µM | [3] > 100 µM | [4] > 100 µM | [5] > 100 µM | [6] > 100 µM | [7] > 100 µM | [8] > 100 µM | [9] > 100 µM | [10] > 100 µM | [11] > 100 µM | [20] > 100 µM | [12] > 100 µM | [13] > 100 µM | [14] > 100 µM | [16] 97.5 µM | [17] > 100 µM | [18] > 100 µM

Cc1cc(Cl)cc2c1NC(=O)/C2=N\Nc1ccccc1[N+](=O)[O-]
inactive: [19] > 100 µM | [1] 21.1 µM | [2] 78.2 µM | [3] > 100 µM | [4] > 100 µM | [5] > 100 µM | [6] 27 µM | [8] > 100 µM | [9] 40.5 µM | [10] > 100 µM | [11] > 100 µM | [12] 64.7 µM | [13] > 100 µM | [14] > 100 µM | [15] > 100 µM | [16] > 100 µM | [17] 16.7 µM | [18] > 100 µM

COc1ccc(NC(C)=O)c(C(O)CCNC(C)=O)c1 (stereo unspecified)
inactive: [19] > 100 µM | [1] > 100 µM | [2] > 100 µM | [3] > 100 µM | [4] > 100 µM | [5] > 100 µM | [6] > 100 µM | [7] > 100 µM | [8] > 100 µM | [9] > 100 µM | [10] > 100 µM | [11] > 100 µM | [20] > 100 µM | [12] > 100 µM | [13] > 100 µM | [15] > 100 µM | [16] > 100 µM | [17] > 100 µM | [18] > 100 µM

COC1/C=C\OC2(C)Oc3c(C)c(O)c4c(O)c(c(CN(C)C)c(O)c4c3C2=O)NC(=O)/C(C)=C\C=C/C(C)C(O)C(C)C(O)C(C)C(OC(C)=O)C1C (stereo unspecified)
inactive: [19] 57.1 µM | [2] 32.3 µM | [3] 12.5 µM | [4] 18.3 µM | [5] 18.5 µM | [6] 45 µM | [7] 20.6 µM | [8] 30.6 µM | [9] 16 µM | [10] 36.6 µM | [11] > 100 µM | [20] 30.6 µM | [12] > 100 µM | [13] 17.5 µM | [14] 31.4 µM | [15] 18.7 µM | [16] 39.3 µM | [17] 15.7 µM | [18] 18.3 µM

CCO[C@]12CCC[C@H]1[C@@H]1C(=O)c3ccccc3C(=O)C1=C(C)O2
inactive: [19] 55.8 µM | [1] 33.5 µM | [2] 58.1 µM | [3] > 100 µM | [5] 41.7 µM | [6] 44.9 µM | [7] > 100 µM | [8] 19.5 µM | [9] 98.2 µM | [10] 26.3 µM | [11] > 100 µM | [20] 40.1 µM | [12] 81.1 µM | [13] 29.4 µM | [14] > 100 µM | [15] > 100 µM | [16] 58.6 µM | [17] 22.3 µM | [18] > 100 µM

Nc1ccccc1C(=O)CCc1c[nH]c2ccccc12
inactive: [2] > 100 µM | [3] 48.3 µM | [4] > 100 µM | [5] > 100 µM | [6] 13.3 µM | [7] > 100 µM | [8] > 100 µM | [10] 20.3 µM | [11] > 100 µM | [20] > 100 µM | [12] 19.4 µM | [13] 30.3 µM | [14] > 100 µM | [15] > 100 µM | [16] 29.4 µM | [17] > 100 µM | [18] 25.1 µM
